Literature values, collected in patent US6090854A, “Aryloxyanilides and related compounds” (Bristol-Meyers Company, priority 1999, dated 2000).

What was measured:
[1] = tested on: circadian rhythms; details: exogenous melatonin, rats; Cassone et al. 1986

oral bioavailability: often low and variable
SMILES: COc1ccc2[nH]cc(CCNC(C)=O)c2c1 [melatonin, N-acetyl-5-methoxytryptamine]
synchronization of circadian rhythms [1]: found to synchronize circadian rhythms in rats
